Measurements from patent US6426369B1, “Oxethazaine as antimicrobial agent” (Eisai Co., Ltd., priority 1997, dated 2002).
Values after ≈ are worked out from the molar mass of the structure shown.

Columns and labels:
[1] = system: H. pylori; experiment: Antimicrobial activity test 6: oxethazaine in combination with an antibiotic (AMPC, CAM, RXM), checker board method; format: cell-based, Helicobacter pylori; parameters: key to growth of H. pylori: “−” indicates the inhibited growth of H. pylori (presence of antimicrobial activity); “+” indicates the growth of H. pylori (absence of antimicrobial activity); conditions: for combined effect of oxethazaine and CAM / combined effect of oxethazaine and RXM: checker board; for effect of combined use: oxethazaine in combination with AMPC
Excerpt: The effect of combined use with amoxicillin (AMPC), clarithromycin (CAM) or roxithromycin (RXM) was examined in the same manner as in antimicrobial activity test 1, using the checker board method.

[2] = system: Gram-positive bacteria; experiment: Antimicrobial activity (MIC) of oxethazaine and structure analogues against Gram-positive bacteria; format: cell-based

## CN(C(=O)CN(CCO)CC(=O)N(C)C(C)(C)Cc1ccccc1)C(C)(C)Cc1ccccc1 [Oxethazaine, 2,2′-[(2-hydroxyethyl)amino]bis[N-(1,1-dimethyl-2-phenylethyl)-N-methylacetamide]]
[1]; EH 12, oxethazaine 100 + CAM 0 μg/ml
  growth of H. pylori: −
[1]; EH 13, oxethazaine 3.13 + CAM 0 μg/ml
  growth of H. pylori: +
[1]; EH 13, oxethazaine 6.25 + CAM 0 μg/ml
  growth of H. pylori: +
[1]; EH 13, oxethazaine 12.5 + CAM 0 μg/ml
  growth of H. pylori: +
[1]; EH 13, oxethazaine 25 + CAM 0 μg/ml
  growth of H. pylori: −
[1]; EH 13, oxethazaine 50 + CAM 0 μg/ml
  growth of H. pylori: −
[1]; EH 13, oxethazaine 100 + CAM 0 μg/ml
  growth of H. pylori: −
[1]; strain 90-388, oxethazaine 3.13 μg/ml, AMPC 0
  growth of H. pylori: +
[1]; strain 90-388, oxethazaine 6.25 μg/ml, AMPC 0
  growth of H. pylori: +
[1]; strain 90-388, oxethazaine 12.5 μg/ml, AMPC 0
  growth of H. pylori: +
[1]; strain 90-388, oxethazaine 25 μg/ml, AMPC 0
  growth of H. pylori: −
[1]; strain 90-388, oxethazaine 50 μg/ml, AMPC 0
  growth of H. pylori: −
[1]; strain 90-388, oxethazaine 100 μg/ml, AMPC 0
  growth of H. pylori: −
[1]; strain 90-390, oxethazaine 3.13 μg/ml, AMPC 0
  growth of H. pylori: +
[1]; strain 90-390, oxethazaine 6.25 μg/ml, AMPC 0
  growth of H. pylori: +
[1]; strain 90-390, oxethazaine 12.5 μg/ml, AMPC 0
  growth of H. pylori: +
[1]; strain 90-390, oxethazaine 25 μg/ml, AMPC 0
  growth of H. pylori: −
[1]; strain 90-390, oxethazaine 50 μg/ml, AMPC 0
  growth of H. pylori: −
[1]; strain 90-390, oxethazaine 100 μg/ml, AMPC 0
  growth of H. pylori: −
[1]; strain 90-397, CAM 0 μg/ml (oxethazaine alone), oxethazaine μg/ml by row r6-r11: 100, 50, 25, 12.5, 6.25, 3.13
  growth of H. pylori: +
[1]; strain 90-397, CAM 0.006 μg/ml, oxethazaine μg/ml: 100, 50, 25, 12.5, 6.25, 3.13, 0
  growth of H. pylori: +
[1]; strain 90-397, CAM 0.012 μg/ml, oxethazaine μg/ml: 100, 50, 25, 12.5, 6.25, 3.13, 0
  growth of H. pylori: +
[1]; strain 90-397, CAM 0.024 μg/ml, oxethazaine μg/ml: 100, 50, 25, 12.5, 6.25, 3.13, 0
  growth of H. pylori: +
[1]; strain 90-397, CAM 0.05 μg/ml, oxethazaine μg/ml: 100, 50, 25, 12.5, 6.25, 3.13, 0
  growth of H. pylori: +
[1]; strain 90-397, CAM 0.1 μg/ml, oxethazaine μg/ml: 100, 50, 25, 12.5, 6.25, 3.13, 0
  growth of H. pylori: −
[1]; strain 90-397, CAM 0.2 μg/ml, oxethazaine μg/ml: 100, 50, 25, 12.5, 6.25, 3.13, 0
  growth of H. pylori: −
[1]; strain 90-397, CAM 0.4 μg/ml, oxethazaine μg/ml: 100, 50, 25, 12.5, 6.25, 3.13, 0
  growth of H. pylori: −
[1]; strain 90-397, CAM 0.8 μg/ml, oxethazaine μg/ml: 100, 50, 25, 12.5, 6.25, 3.13, 0
  growth of H. pylori: −
[1]; strain 90-397, CAM 1.56 μg/ml, oxethazaine μg/ml: 100, 50, 25, 12.5, 6.25, 3.13, 0
  growth of H. pylori: −
[1]; strain 90-397, CAM 3.13 μg/ml, oxethazaine μg/ml: 100, 50, 25, 12.5, 6.25, 3.13, 0
  growth of H. pylori: −
[1]; strain 90-397, CAM 6.25 μg/ml, oxethazaine μg/ml: 100, 50, 25, 12.5, 6.25, 3.13, 0
  growth of H. pylori: −
[1]; strain 90-397, CAM 12.5 μg/ml, oxethazaine μg/ml: 100, 50, 25, 12.5, 6.25, 3.13, 0
  growth of H. pylori: −
[1]; strain 90-397, CAM 25 μg/ml, oxethazaine μg/ml: 100, 50, 25, 12.5, 6.25, 3.13, 0
  growth of H. pylori: −
[1]; strain 90-397, CAM 50 μg/ml, oxethazaine μg/ml: 100, 50, 25, 12.5, 6.25, 3.13, 0
  growth of H. pylori: −
[1]; strain 90-397, CAM 100 μg/ml, oxethazaine μg/ml: 100, 50, 25, 12.5, 6.25, 3.13, 0
  growth of H. pylori: −
[1]; strain 90-397
  combined effect of oxethazaine and CAM: 90-397 (synergism)
[1]; strain 90-407, CAM 0 μg/ml (oxethazaine alone), oxethazaine μg/ml by row r14-r19: 100, 50, 25, 12.5, 6.25, 3.13
  growth of H. pylori: −
[1]; strain 90-407, CAM 0.006 μg/ml, oxethazaine μg/ml: 100, 50, 25, 12.5, 6.25, 3.13, 0
  growth of H. pylori: −
[1]; strain 90-407, CAM 0.012 μg/ml, oxethazaine μg/ml: 100, 50, 25, 12.5, 6.25, 3.13, 0
  growth of H. pylori: −
[1]; strain 90-407, CAM 0.024 μg/ml, oxethazaine μg/ml: 100, 50, 25, 12.5, 6.25, 3.13, 0
  growth of H. pylori: −
[1]; strain 90-407, CAM 0.05 μg/ml, oxethazaine μg/ml: 100, 50, 25, 12.5, 6.25, 3.13, 0
  growth of H. pylori: −
[1]; strain 90-407, CAM 0.1 μg/ml, oxethazaine μg/ml: 100, 50, 25, 12.5, 6.25, 3.13, 0
  growth of H. pylori: −
[1]; strain 90-407, CAM 0.2 μg/ml, oxethazaine μg/ml: 100, 50, 25, 12.5, 6.25, 3.13, 0
  growth of H. pylori: −
[1]; strain 90-407, CAM 6.25 μg/ml, oxethazaine μg/ml: 100, 50, 25, 12.5, 6.25, 3.13, 0
  growth of H. pylori: −
[1]; strain 90-407, CAM 12.5 μg/ml, oxethazaine μg/ml: 100, 50, 25, 12.5, 6.25, 3.13, 0
  growth of H. pylori: −
[1]; strain 90-407, CAM 25 μg/ml, oxethazaine μg/ml: 100, 50, 25, 12.5, 6.25, 3.13, 0
  growth of H. pylori: −
[1]; strain 90-407, CAM 50 μg/ml, oxethazaine μg/ml: 100, 50, 25, 12.5, 6.25, 3.13, 0
  growth of H. pylori: −
[1]; strain 90-407, CAM 100 μg/ml, oxethazaine μg/ml: 100, 50, 25, 12.5, 6.25, 3.13, 0
  growth of H. pylori: −
[1]; strain 90-407
  combined effect of oxethazaine and CAM: 90-407 (additive effect)
[1]; strain 90-407, oxethazaine 3.13 μg/ml, AMPC 0
  growth of H. pylori: +
[1]; strain 90-407, oxethazaine 6.25 μg/ml, AMPC 0
  growth of H. pylori: +
[1]; strain 90-407, oxethazaine 12.5 μg/ml, AMPC 0
  growth of H. pylori: +
[1]; strain 90-407, oxethazaine 25 μg/ml, AMPC 0
  growth of H. pylori: −
[1]; strain 90-407, oxethazaine 50 μg/ml, AMPC 0
  growth of H. pylori: −
[1]; strain 90-407, oxethazaine 100 μg/ml, AMPC 0
  growth of H. pylori: −
[1]; strain 90-414, oxethazaine 3.13 μg/ml, AMPC 0
  growth of H. pylori: +
[1]; strain 90-414, oxethazaine 6.25 μg/ml, AMPC 0
  growth of H. pylori: +
[1]; strain 90-414, oxethazaine 12.5 μg/ml, AMPC 0
  growth of H. pylori: +
[1]; strain 90-414, oxethazaine 25 μg/ml, AMPC 0
  growth of H. pylori: −
[1]; strain 90-414, oxethazaine 50 μg/ml, AMPC 0
  growth of H. pylori: −
[1]; strain 90-414, oxethazaine 100 μg/ml, AMPC 0
  growth of H. pylori: −
[1]; strain 90-428
  combined effect of oxethazaine and CAM: 90-428 (synergism)
[1]; strain EH 12
  combined effect of oxethazaine and RXM: EH 12 (additive effect)
[1]; strain EH 13
  combined effect of oxethazaine and RXM: EH 13 (additive effect)
[1]; strain NCTC11637
  combined effect of oxethazaine and RXM: NCTC11637 (additive effect)
[1]; strain NCTC11637, oxethazaine 3.13 μg/ml, CAM 0
  growth of H. pylori: +
[1]; strain NCTC11637, oxethazaine 6.25 μg/ml, CAM 0
  growth of H. pylori: +
[1]; strain NCTC11637, oxethazaine 12.5 μg/ml, CAM 0
  growth of H. pylori: −
[1]; strain NCTC11637, oxethazaine 25 μg/ml, CAM 0
  growth of H. pylori: −
[1]; strain NCTC11637, oxethazaine 50 μg/ml, CAM 0
  growth of H. pylori: −
[1]; strain NCTC11637, oxethazaine 100 μg/ml, CAM 0
  growth of H. pylori: −
[1]; strain NCTC11639
  combined effect of oxethazaine and RXM: NCTC11639 (additive effect)
[1]; strain NCTC11639, oxethazaine 3.13 μg/ml, CAM 0
  growth of H. pylori: +
[1]; strain NCTC11639, oxethazaine 6.25 μg/ml, CAM 0
  growth of H. pylori: +
[1]; strain NCTC11639, oxethazaine 12.5 μg/ml, CAM 0
  growth of H. pylori: +
[1]; strain NCTC11639, oxethazaine 25 μg/ml, CAM 0
  growth of H. pylori: −
[1]; strain NCTC11639, oxethazaine 50 μg/ml, CAM 0
  growth of H. pylori: −
[1]; strain NCTC11639, oxethazaine 100 μg/ml, CAM 0
  growth of H. pylori: −
[1]; the 34th table, strain NCTC11637
  effect of combined use: NCTC11637 (additive effect)
[1]; the 34th table, strain NCTC11639
  effect of combined use: NCTC11639 (additive effect)
[1]; the 35th table, strain NCTC11637
  effect of combined use: NCTC11637 (additive effect)
[1]; the 35th table, strain NCTC11639
  effect of combined use: NCTC11639 (additive effect)
[1]; the 36th table, strain EH 13
  effect of combined use: EH 13 (additive effect)
[1]; the 36th table, strain EH 16
  effect of combined use: EH 16 (additive effect)
[1]; the 37th table, strain EH 13
  effect of combined use: EH 13 (additive effect)
[1]; the 37th table, strain EH 16
  effect of combined use: EH 16 (additive effect)
[2]; Enterococcus faecalis, E. faecalis RIMD 3116001
  MIC: 25 µg/mL (≈ 53.5 µM)
[2]; Staphylococcus aureus, FDA209, S. aureus FDA 209-P
  MIC: 12.5 µg/mL (≈ 26.7 µM)
[2]; Staphylococcus epidermidis, ATCC12228, S. epidermidis ATCC 12228
  MIC: 6.25 µg/mL (≈ 13.4 µM)
[2]; conclusion
  effect on Gram-positive bacteria: excellent effect
